Test system: IL-1β secretion, THP-1 cells
Experiment: IL-1β secretion assay in PMA-differentiated THP-1 cells stimulated with LPS and nigericin (ELISA readout)
Format: cell-based
Settings: Homo sapiens, THP-1, inhibition of IL-1β secretion, 25 ng/mL LPS then nigericin
Method in brief: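 THP-1 cells differentiated with 5 ng/mL PMA for 40 h, primed in serum-free medium with 25 ng/mL LPS for 2 h, then compound (0.5% DMSO) for 1 h before nigericin for 2 h at 37°C. Supernatant IL-1β quantified by ELISA; normalized to high (LPS + 5 µM nigericin) and low (LPS only) controls.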

| Structure (SMILES) | IC50 (class column of Table 3) | IC50 (numeric column of Table 3) |
| --- | --- | --- |
| O=C(Cn1nc(OC2CC2)c2cc(Br)ccc2c1=O)Nc1ncc(F)cn1 [Example 150, 2-(6-bromo-4-cyclopropyloxy-1-oxophthalazin-2-yl)-N-(5-fluoropyrimidin-2-yl)acetamide] | < 10 µM | 0.127 µM |
| O=C(Cn1nc(C(F)F)c2cc(Br)ccc2c1=O)Nc1ncc(Cl)cc1F [Example 134] | < 10 µM | 1.21 µM |
| O=C(Cn1nc(CF)c2cc(Br)ccc2c1=O)Nc1ncc(F)cn1 [Example 142, 2-[6-bromo-4-(fluoromethyl)-1-oxophthalazin-2-yl]-N-(5-fluoropyrimidin-2-yl)acetamide] | < 10 µM | 0.091 µM |
| O=C(Cn1nc([C@H]2C[C@@H]2F)c2cc(Br)ccc2c1=O)Nc1ncc(F)cn1 [Example 167, 2-[6-bromo-4-[2-trans-fluorocyclopropyl]-1-oxophthalazin-2-yl]-N-(5-fluoropyrimidin-2-yl)acetamide] | > 15 µM | 16.1 µM |
| Cc1cnn(C)c1NC(=O)Cn1nc(C(C)C)c2cc(Br)ccc2c1=O [Example 63, 2-(6-bromo-1-oxo-4-propan-2-ylphthalazin-2-yl)-N-(2,4-dimethylpyrazol-3-yl)acetamide] | 10 to 15 µM | 12.8 µM |
| CC(C)c1nn(CC(=O)Nc2ccc(C(F)(F)F)nc2)c(=O)c2ccc(Br)cc12 [Example 45, 2-(6-bromo-1-oxo-4-propan-2-ylphthalazin-2-yl)-N-[6-(trifluoromethyl)pyridin-3-yl]acetamide] | < 10 µM | 1.19 µM |
| CC(C)c1nn(CC(=O)Nc2ccnnc2)c(=O)c2ccc(Br)cc12 [Example 121, 2-(6-bromo-1-oxo-4-propan-2-ylphthalazin-2-yl)-N-pyridazin-4-ylacetamide] | < 10 µM | 0.423 µM |
| CC(C)c1nn(CC(=O)Nc2nccc(C(F)(F)F)n2)c(=O)c2ccc(Br)cc12 [Example 110, 2-(6-bromo-1-oxo-4-propan-2-ylphthalazin-2-yl)-N-[4-(trifluoromethyl)pyrimidin-2-yl]acetamide] | < 10 µM | 1.35 µM |
| CC(C)c1nn(CC(=O)Nc2ccnn2C2COC2)c(=O)c2ccc(Br)cc12 [Example 67, 2-(6-bromo-1-oxo-4-propan-2-ylphthalazin-2-yl)-N-[2-(oxetan-3-yl)pyrazol-3-yl]acetamide] | < 10 µM | 1.03 µM |
| CC(C)c1nn(CC(=O)Nc2ncc(Cl)cc2F)c(=O)c2ccc(Br)cc12 [Example 68, 2-(6-bromo-1-oxo-4-propan-2-ylphthalazin-2-yl)-N-(5-chloro-3-fluoropyridin-2-yl)acetamide] | < 10 µM | 0.11 µM |
| O=C(Cn1nc(OCF)c2cc(Br)ccc2c1=O)Nc1ncc(F)cn1 [Example 137, 2-[6-bromo-1-oxo-4-(fluoromethoxy)phthalazin-2-yl]-N-(5-fluoropyrimidin-2-yl)acetamide] | < 10 µM | 0.186 µM |
| CC(O)c1nn(CC(=O)Nc2ncccn2)c(=O)c2ccc(Br)cc12 (single isomer, unassigned) [Example 101, 2-(6-bromo-4-(1-hydroxyethyl)-1-oxophthalazin-2(1H)-yl)-N-(pyrimidin-2-yl)acetamide] | < 10 µM | 1.45 µM |
| CC(C)c1nn(CC(=O)Nc2ncncc2F)c(=O)c2cc(Br)c(F)cc12 [Example 86, 2-(7-bromo-6-fluoro-1-oxo-4-propan-2-ylphthalazin-2-yl)-N-(5-fluoropyrimidin-4-yl)acetamide] | > 15 µM | > 50 µM |
| CO[C@H]1C[C@@H](Oc2nn(CC(=O)Nc3ncc(F)cn3)c(=O)c3ccc(Br)cc23)C1 [Example 172, 2-[6-bromo-4-(3-cis-methoxycyclobutyl)oxy-1-oxophthalazin-2-yl]-N-(5-fluoropyrimidin-2-yl)acetamide] | < 10 µM | 0.403 µM |
| N#Cc1cnc(NC(=O)Cn2nc(OC3CC3)c3cc(Br)ccc3c2=O)c(F)c1 [Example 151] | < 10 µM | 0.491 µM |
| CC(C)c1nn(CC(=O)NC2CCOC(C)(C)C2)c(=O)c2ccc(Br)cc12 (centres unmarked) [Example 60, 2-(6-bromo-1-oxo-4-propan-2-ylphthalazin-2-yl)-N-(2,2-dimethyloxan-4-yl)acetamide] | < 10 µM | 1.41 µM |
| CC(C)c1nn(CC(=O)N2CCCc3ccccc32)c(=O)c2ccc(Br)cc12 [Example 73, 6-bromo-2-[2-(3,4-dihydro-2H-quinolin-1-yl)-2-oxoethyl]-4-propan-2-ylphthalazin-1-one] | < 10 µM | 9.63 µM |
| CC(C)c1nn(CC(=O)NC2CCCC2(F)F)c(=O)c2ccc(Br)cc12 (centres unmarked) [Example 46, 2-(6-bromo-1-oxo-4-propan-2-ylphthalazin-2-yl)-N-(2,2-difluorocyclopentyl)acet amide] | < 10 µM | 1.17 µM |
| CO[C@H]1C[C@H](Oc2nn(CC(=O)Nc3ncc(F)cn3)c(=O)c3ccc(Br)cc23)C1 [Example 160] | < 10 µM | 1.32 µM |

| Structure (SMILES) | IC50 (class column of Table 3) | IC50 (numeric column of Table 3) |
| --- | --- | --- |
| CCOc1nn(CC(=O)Nc2ncc(F)cn2)c(=O)c2ccc(Br)cc12 [Example 154, 2-(6-bromo-4-ethoxy-1-oxophthalazin-2-yl)-N-(5-fluoropyrimidin-2-yl)acetamide] | < 10 µM | 0.68 µM |
| CC(C)c1nn(CC(=O)NC(C)C2CCC2)c(=O)c2ccc(Br)cc12 (centres unmarked) [Example 76, 2-(6-bromo-1-oxo-4-propan-2-ylphthalazin-2-yl)-N-(1-cyclobutylethyl)acetamide] | < 10 µM | 8.06 µM |
| COc1c(Br)ccc2c(=O)n(CC(=O)Nc3ncc(F)cn3)nc(Cl)c12 [Example 141, 2-(6-bromo-4-chloro-5-methoxy-1-oxophthalazin-2-yl)-N-(5-fluoropyrimidin-2-yl)acetamide] | < 10 µM | 1.2 µM |
| CC(C)c1nn(CC(=O)Nc2ncncc2F)c(=O)c2cc(C(F)(F)F)ccc12 [Example 88, N-(5-fluoropyrimidin-4-yl)-2-[1-oxo-4-propan-2-yl-7-(trifluoromethyl)phthalazin-2-yl]acetamide] | > 15 µM | > 50 µM |
| O=C(Cn1nc(OCC(F)(F)F)c2cc(Br)ccc2c1=O)Nc1ncc(F)cn1 [Example 138, 2-[6-bromo-1-oxo-4-(2,2,2-trifluoroethoxy)phthalazin-2-yl]-N-(5-fluoropyrimidin-2-yl)acetamide] | 10 to 15 µM | 11.1 µM |
| CN(C)c1ccc2c(=O)n(CC(=O)Nc3ncc(F)cn3)nc(Br)c2c1 [Example 180, 2-[4-bromo-6-(dimethylamino)-1-oxophthalazin-2-yl]-N-(5-fluoropyrimidin-2-yl)acetamide] | < 10 µM | 4.86 µM |
| O=C(Cn1nc(Br)c2cc(Br)ccc2c1=O)Nc1ncc(F)cn1 [Example 181, 2-(4,6-Dibromo-1-Oxophthalazin-2-yl)-N-(5-Fluoropyrimidin-2-yl)Acetamide] | < 10 µM | 0.23 µM |
| O=C(Cn1nc(C(F)F)c2cc(Br)ccc2c1=O)Nc1ncc(F)cn1 [Example 103, 2-[6-bromo-4-(difluoromethyl)-1-oxophthalazin-2-yl]-N-(5-fluoropyrimidin-2-yl)acetamide] | < 10 µM | 0.265 µM |
| CC(C)c1nn(CC(=O)Nc2cccnn2)c(=O)c2ccc(Br)cc12 [Example 70, 2-(6-bromo-1-oxo-4-propan-2-ylphthalazin-2-yl)-N-pyridazin-3-ylacetamide] | < 10 µM | 0.952 µM |
| CC(C)c1nn(CC(=O)N[C@@H]2CCCN(C3CC3)C2)c(=O)c2ccc(Br)cc12 [Example 5, (R)(6-Bromo-4-Isopropyl-1-Oxophthalazin-2(1H)-yl)-N-(1-Cyclopropylpiperidin-3-yl)Acetamide] | < 10 µM | 0.046 µM |
| CC(C)c1nn(CC(=O)Nc2c(F)cncc2F)c(=O)c2ccc(Br)cc12 [Example 37, 2-(6-bromo-1-oxo-4-propan-2-ylphthalazin-2-yl)-N-(3,5-difluoropyridin-4-yl)acetamide] | < 10 µM | 4.95 µM |
| O=C(Cn1nc(C(F)F)c2ccc(Br)cc2c1=O)Nc1ncccn1 [Example 94, 2-[7-bromo-4-(difluoromethyl)-1-oxo-phthalazin-2-yl]-N-pyrimidin-2-yl-acetamide] | < 10 µM | 6.05 µM |
| CC(C)c1nn(CC(=O)Nc2ncncc2F)c(=O)c2c(F)cc(Br)cc12 [Example 92, 2-(6-bromo-8-fluoro-1-oxo-4-propan-2-ylphthalazin-2-yl)-N-(5-fluoropyrimidin-4-yl)acetamide] | < 10 µM | 0.741 µM |
| N#C[C@H]1C[C@@H](Oc2nn(CC(=O)Nc3ncc(F)cn3)c(=O)c3ccc(Br)cc23)C1 [Example 171, 2-[6-bromo-4-(3-cis-cyanocyclobutyl)oxy-1-oxophthalazin-2-yl]-N-(5-fluoropyrimidin-2-yl)acetamide] | < 10 µM | 5.85 µM |
| COc1nn(CC(=O)Nc2ncc(F)cn2)c(=O)c2ccc(Br)c(F)c12 [Example 140, 2-(6-bromo-5-fluoro-4-methoxy-1-oxophthalazin-2-yl)-N-(5-fluoropyrimidin-2-yl)acetamide] | < 10 µM | 0.087 µM |
| CC(C)c1nn(CC(=O)Nc2ccnn2C2CCC2)c(=O)c2ccc(Br)cc12 [Example 123, 2-(6-bromo-1-oxo-4-propan-2-ylphthalazin-2-yl)-N-(2-cyclobutylpyrazol-3-yl)acetamide] | < 10 µM | 2.13 µM |
| O=C(Cn1nc(C(F)F)c2c(F)c(C3CCC3)ccc2c1=O)Nc1ncc(F)cn1 [Example 185, 2-[6-cyclobutyl-4-(difluoromethyl)-5-fluoro-1-oxophthalazin-2-yl]-N-(5-fluoropyrimidin-2-yl)acetamide] | < 10 µM | 2.09 µM |
| CC(C)c1nn(CC(=O)NC2CCC2)c(=O)c2ccc(Br)cc12 [Example 126, 2-(6-bromo-1-oxo-4-propan-2-ylphthalazin-2-yl)-N-cyclobutylacetamide] | < 10 µM | 1.78 µM |
